Source: patent publication US20110034528A1, “Elansolids, Novel Natural Metabolites of Flexibacter and Antibiotically Active Derivatives Thereof” (priority 2008, published 2011)
Values after ≈ are worked out from the molar mass of the structure shown.

Assays:
E. faecalis 25912 = experiment: Minimum inhibitory concentration (MIC) determination; format: cell-based; details: Enterococcus faecalis
Description: (§1) The determination of minimum inhibitory concentrations was performed as described in J. Antimicrob. Chemother. 2001;48 Suppl 1:5-16.

Corynebact. fascians = experiment: as above; format: cell-based
Description: as §1

[1] = test system: Chromobacterium violaceum; experiment: as above; format: cell-based
Description: as §1

[2] = test system: S. aureus MRS3 (clinical isolate of a multiresistant S. aureus); experiment: as above; format: cell-based; details: Staphylococcus aureus
Description: as §1

S. aureus 29213 = experiment: as above; format: cell-based; details: Staphylococcus aureus
Description: as §1

Mycobacterium lacticola = experiment: as above; format: cell-based
Description: as §1

Micrococcus luteus = experiment: as above; format: cell-based
Description: as §1

[3] = Transformation of Elansolid A2 in solution; format: physicochemical; details: in solution (especially in DMSO)
gram-positive bacteria = experiment: Elansolid C1: antibiotic spectrum against gram positive bacteria; format: cell-based

Row | Structure (SMILES) | MIC (E. faecalis 25912) [mg/L] | MIC (Corynebact. fascians) [mg/L] | MIC [1] [mg/L] | MIC [2] [mg/L] | MIC (S. aureus 29213) [mg/L] | MIC (Mycobacterium lacticola) [mg/L] | MIC (Micrococcus luteus) [mg/L] | transformation in solution [3] | Inhibition zone (gram-positive bacteria; Arthrobacter simplex) [mm] | Inhibition zone (gram-positive bacteria; Bacillus polymyxa) [mm] | Inhibition zone (gram-positive bacteria; Bacillus thuringiensis) [mm] | Inhibition zone (gram-positive bacteria; Brevibact. ammoniagenes) [mm] | Inhibition zone (gram-positive bacteria; Corynebact. fascians) [mm] | Inhibition zone (gram-positive bacteria; Micrococcus luteus) [mm] | Inhibition zone (gram-positive bacteria; Mycobact. chitae) [mm] | Inhibition zone (gram-positive bacteria; Nocardia flava) [mm] | Inhibition zone (gram-positive bacteria; Staph. aureus) [mm] | Inhibition zone (gram-positive bacteria; Streptococcus faecalis) [mm] | activity against selected gram-positive bacteria (gram-positive bacteria; selected gram-positive bacteria)
1 | CC1=CC2C(C3C1\C=C/C=C/C=C\C(O)C(C)C(O)C/C=C(C)/C=C/C(=O)OC3c1ccc(O)cc1)C(C)(C)CC2(C)O (stereo not drawn) [Elansolid A2] | 64 (≈ 109 µM) | 1.6 (≈ 2.72 µM) | 3.3 (≈ 5.6 µM) | 0.8 (≈ 1.36 µM) | 4 (≈ 6.79 µM) | 3.3 (≈ 5.6 µM) | 0.2 (≈ 0.34 µM) | transformed into Elansolid A1 |  |  |  |  |  |  |  |  |  |  | 
2 | CC1=CC2C(C(C(Nc3ccccc3C(=O)O)c3ccc(O)cc3)C1\C=C/C=C/C=C\C(O)C(C)C(O)C/C=C(C)/C=C/C(=O)O)C(C)(C)CC2(C)O (stereo not drawn) [Elansolid C1] |  |  |  | 1.7 (≈ 2.34 µM) |  |  | 0.4 (≈ 0.551 µM) |  | 25 | 20 | 17 | 17 | 26 | 27 | 15 | 14 | 11 | 14 | bactericidal activity
